Measured values as given in paper PMC9944328 (Nature Communications, 2023).
Read-outs that look alike come from different tables or passages of the source.

System: SSTR2 mutants
Test: NanoBiT β-arrestin 1 recruitment assay, HEK293 (SSTR2 mutants);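 for Best-fit Bottom: percent of maximal wild-type SSTR2 response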;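 for Best-fit Span: percent of maximal wild-type SSTR2 response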;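 for Best-fit Top: percent of maximal wild-type SSTR2 response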;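 for Bottom (best-fit): percent of maximal wild-type response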;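 for Emax: percent of the maximal wild-type SSTR2 response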;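 for Span (best-fit value): percent of maximal wild-type response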;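 for Span (best-fit): percent of maximal wild-type response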;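 for Top (best-fit value): percent of maximal wild-type response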;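 for Top (best-fit): percent of maximal wild-type response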
Type: cell-based, human
Conditions: for Fold of WT: β-arrestin recruitment EC50
Procedure: The NanoBiT β-arrestin 1 recruitment assays were carried out according to the method described previously. […] Human full-length SSTR wild-type and mutant vectors were C-terminally fused with a 15-amino acid flexible linker and the small fragment (SmBiT). HEK293 cells were seeded into six-well microplates at a density of 1.0 × 10^6 cells/well and cultured for 24 h at 37 °C with 5% CO2. After that, cells were co-transfected with pcDNA3.1+ vectors encoding SSTR wild-type or mutants and human β-arrestin 1. After transfecting for 24 h, the transfected cells were suspended and seeded into white 96-well plates, and then cultured at 37 °C overnight. After that the medium in each well was exchanged for 90 μl of 0.01% bovine serum albumin containing 20 μl of 50 μM coelenterazine h (Carbosynth) diluted in the HBSS assay buffer and incubated for 40 min at room temperature. Then, ligands diluted in the assay buffer was added to each well and the luminescence intensity was measured using the Synergy H1 microplate reader and detected at room temperature in a time period. All data presented are means of at least three independent experiments.

[1] = β-arrestin recruitment, SSTR2 F127(3.37)A, n=3
[2] = β-arrestin recruitment, SSTR2 F294(7.35)A, n=3, ND = not detected
[3] = β-arrestin recruitment, SSTR2 I284ECL3A, n=3
[4] = β-arrestin recruitment, SSTR2 K291(7.32)A, n=3, ND = not detected
[5] = β-arrestin recruitment, SSTR2 N276(6.55)A, n=3, ND = not detected
[6] = β-arrestin recruitment, SSTR2 W269(6.48)A, n=3
[7] = β-arrestin recruitment, SSTR2 Y50(1.39)A, n=3
[8] = β-arrestin recruitment, SSTR2 Y205(5.35)A, n=3
[9] = β-arrestin recruitment, SSTR2 Y302(7.43)A, n=3

## N#Cc1cccc(-c2ccc3ncc(-c4cc(F)cc(F)c4)c(N4CCC(N)CC4)c3c2)c1O [paltusotine]
F127A-1
  Bottom (best-fit): -1.415
  LogEC50 (best-fit): -6.677
  Span (best-fit): 63.7
  Top (best-fit): 62.28
F127A-2
  Bottom (best-fit): -1.034
  LogEC50 (best-fit): -6.706
  Span (best-fit): 59.48
  Top (best-fit): 58.45
F127A-3
  Bottom (best-fit): -1.184
  LogEC50 (best-fit): -6.817
  Span (best-fit): 69.08
  Top (best-fit): 67.89
F294(7.35)A
  β-arrestin recruitment of mutant: slightly influenced the β-arrestin pathway
I284ECL3A, K291(7.32)A and N276(6.55)A
  β-arrestin recruitment of mutants: slightly enhanced recruitment of β-arrestin
SSTR2 I284A, run 1
  Best-fit Bottom: -1.437
  Best-fit LogEC50: -6.742
  Best-fit Span: 206.6
  Best-fit Top: 205.2
SSTR2 I284A, run 2
  Best-fit Bottom: -1.082
  Best-fit LogEC50: -6.742
  Best-fit Span: 155.6
  Best-fit Top: 154.5
SSTR2 I284A, run 3
  Best-fit Bottom: -1.233
  Best-fit LogEC50: -6.745
  Best-fit Span: 219.6
  Best-fit Top: 218.3
SSTR2 W269A, run W269A-1
  Bottom (best-fit value): -0.1166
  LogEC50 (best-fit value): -6.523
  Span (best-fit value): 23.55
  Top (best-fit value): 23.43
SSTR2 W269A, run W269A-2
  Bottom (best-fit value): -0.1813
  LogEC50 (best-fit value): -6.214
  Span (best-fit value): 28.45
  Top (best-fit value): 28.27
SSTR2 W269A, run W269A-3
  Bottom (best-fit value): 0.3375
  LogEC50 (best-fit value): -6.325
  Span (best-fit value): 20.32
  Top (best-fit value): 20.66
SSTR2 Y50A, run 1
  Best-fit Bottom: -1.913
  Best-fit LogEC50: -7.128
  Best-fit Span: 70.62
  Best-fit Top: 68.71
SSTR2 Y50A, run 2
  Best-fit Bottom: -2.472
  Best-fit LogEC50: -7.187
  Best-fit Span: 103.4
  Best-fit Top: 100.9
SSTR2 Y50A, run 3
  Best-fit Bottom: -2.529
  Best-fit LogEC50: -7.176
  Best-fit Span: 105.2
  Best-fit Top: 102.6
SSTR2 Y205A, run Y205A-1
  Bottom (best-fit value): -3.142
  LogEC50 (best-fit value): -6.819
  Span (best-fit value): 125.5
  Top (best-fit value): 122.3
SSTR2 Y205A, run Y205A-2
  Bottom (best-fit value): -4.259
  LogEC50 (best-fit value): -6.824
  Span (best-fit value): 138.9
  Top (best-fit value): 134.6
SSTR2 Y205A, run Y205A-3
  Bottom (best-fit value): -4.015
  LogEC50 (best-fit value): -6.671
  Span (best-fit value): 203.2
  Top (best-fit value): 199.2
V103(2.64)A
  β-arrestin signal of mutant: markedly reduced the paltusotine-induced β-arrestin signal
best-fit, D295A-1
  Bottom (β-arrestin1 recruitment): 0.727
  LogEC50 (β-arrestin1 recruitment): -5.635
  Span (β-arrestin1 recruitment): 100
  Top (β-arrestin1 recruitment): 100.7
best-fit, D295A-2
  Bottom (β-arrestin1 recruitment): 1.431
  LogEC50 (β-arrestin1 recruitment): -5.595
  Span (β-arrestin1 recruitment): 100.8
  Top (β-arrestin1 recruitment): 102.3
best-fit, D295A-3
  Bottom (β-arrestin1 recruitment): 0.3814
  LogEC50 (β-arrestin1 recruitment): -5.706
  Span (β-arrestin1 recruitment): 93.14
  Top (β-arrestin1 recruitment): 93.53
best-fit, F294A-1
  Bottom (β-arrestin1 recruitment): -2.632
  LogEC50 (β-arrestin1 recruitment): -5.979
  Span (β-arrestin1 recruitment): 125.8
  Top (β-arrestin1 recruitment): 123.2
best-fit, F294A-2
  Bottom (β-arrestin1 recruitment): -1.982
  LogEC50 (β-arrestin1 recruitment): -5.979
  Span (β-arrestin1 recruitment): 94.75
  Top (β-arrestin1 recruitment): 92.77
best-fit, F294A-3
  Bottom (β-arrestin1 recruitment): -2.454
  LogEC50 (β-arrestin1 recruitment): -6.059
  Span (β-arrestin1 recruitment): 130.8
  Top (β-arrestin1 recruitment): 128.3
best-fit, K291A-1
  Bottom (β-arrestin1 recruitment): -2.723
  LogEC50 (β-arrestin1 recruitment): -7.098
  Span (β-arrestin1 recruitment): 158
  Top (β-arrestin1 recruitment): 155.2
best-fit, K291A-2
  Bottom (β-arrestin1 recruitment): -3.352
  LogEC50 (β-arrestin1 recruitment): -7.045
  Span (β-arrestin1 recruitment): 143.2
  Top (β-arrestin1 recruitment): 139.9
best-fit, K291A-3
  Bottom (β-arrestin1 recruitment): -4.699
  LogEC50 (β-arrestin1 recruitment): -6.141
  Span (β-arrestin1 recruitment): 138.3
  Top (β-arrestin1 recruitment): 133.6
best-fit, N276A-1
  Bottom (β-arrestin1 recruitment): -2.311
  LogEC50 (β-arrestin1 recruitment): -7.135
  Span (β-arrestin1 recruitment): 170
  Top (β-arrestin1 recruitment): 167.7
best-fit, N276A-2
  Bottom (β-arrestin1 recruitment): -1.74
  LogEC50 (β-arrestin1 recruitment): -7.135
  Span (β-arrestin1 recruitment): 128
  Top (β-arrestin1 recruitment): 126.3
best-fit, N276A-3
  Bottom (β-arrestin1 recruitment): -2.993
  LogEC50 (β-arrestin1 recruitment): -7.215
  Span (β-arrestin1 recruitment): 180.6
  Top (β-arrestin1 recruitment): 177.6
best-fit, Y302A-1
  Bottom (β-arrestin1 recruitment): 0.04519
  LogEC50 (β-arrestin1 recruitment): -6.65
  Span (β-arrestin1 recruitment): 206.8
  Top (β-arrestin1 recruitment): 206.8
best-fit, Y302A-2
  Bottom (β-arrestin1 recruitment): -0.03402
  LogEC50 (β-arrestin1 recruitment): -6.645
  Span (β-arrestin1 recruitment): 207.2
  Top (β-arrestin1 recruitment): 207.2
best-fit, Y302A-3
  Bottom (β-arrestin1 recruitment): -0.02562
  LogEC50 (β-arrestin1 recruitment): -6.645
  Span (β-arrestin1 recruitment): 156
  Top (β-arrestin1 recruitment): 156
read-out: Best-fit EC50, SSTR2 I284A, run 1
  EC50: 181 nM
read-out: Best-fit EC50, SSTR2 I284A, run 3
  EC50: 180 nM
read-out: Best-fit EC50, SSTR2 Y50A, run 1
  EC50: 74.4 nM
read-out: Best-fit EC50, SSTR2 Y50A, run 2
  EC50: 65 nM
read-out: Best-fit EC50, SSTR2 Y50A, run 3
  EC50: 66.7 nM
read-out: EC50 (best-fit value), SSTR2 W269A, run W269A-1
  EC50: 300 nM
read-out: EC50 (best-fit value), SSTR2 W269A, run W269A-2
  EC50: 610 nM
read-out: EC50 (best-fit value), SSTR2 W269A, run W269A-3
  EC50: 474 nM
read-out: EC50 (best-fit value), SSTR2 Y205A, run Y205A-2
  EC50: 150 nM
read-out: EC50 (best-fit value), SSTR2 Y205A, run Y205A-3
  EC50: 213 nM
read-out: EC50 (best-fit), F127A-1
  EC50: 210 nM
read-out: EC50 (best-fit), F127A-2
  EC50: 197 nM
read-out: EC50 (best-fit), F127A-3
  EC50: 152 nM
read-out: EC50 (β-arrestin1 recruitment), best-fit, D295A-1
  EC50: 2320 nM
read-out: EC50 (β-arrestin1 recruitment), best-fit, D295A-2
  EC50: 2540 nM
read-out: EC50 (β-arrestin1 recruitment), best-fit, D295A-3
  EC50: 1970 nM
read-out: EC50 (β-arrestin1 recruitment), best-fit, F294A-1
  EC50: 1050 nM
read-out: EC50 (β-arrestin1 recruitment), best-fit, F294A-3
  EC50: 872 nM
read-out: EC50 (β-arrestin1 recruitment), best-fit, K291A-1
  EC50: 79.7 nM
read-out: EC50 (β-arrestin1 recruitment), best-fit, K291A-2
  EC50: 90.2 nM
read-out: EC50 (β-arrestin1 recruitment), best-fit, N276A-1
  EC50: 73.2 nM
read-out: EC50 (β-arrestin1 recruitment), best-fit, N276A-3
  EC50: 61 nM
read-out: EC50 (β-arrestin1 recruitment), best-fit, Y302A-1
  EC50: 224 nM
read-out: EC50 (β-arrestin1 recruitment), best-fit, Y302A-2
  EC50: 226 nM
SSTR2 D295(7.36)A
  Fold of WT: 1.22
SSTR2 F127(3.37)A
  Fold of WT: 0.49
SSTR2 F294(7.35)A
  Fold of WT: 2.44
SSTR2 I284ECL3A
  Fold of WT: 0.45
SSTR2 K291(7.32)A
  Fold of WT: 0.21
SSTR2 N276(6.55)A
  Fold of WT: 0.17
SSTR2 W269(6.48)A
  Fold of WT: 2.65
SSTR2 Y50(1.39)A
  Fold of WT: 0.17
SSTR2 Y205(5.35)A
  Fold of WT: 0.42
SSTR2 Y302(7.43)A
  Fold of WT: 0.56
β-arrestin recruitment, SSTR2 D295(7.36)A, detected at 10 μM, n=3
  Emax: 87.12±2.30 %WT
β-arrestin recruitment, SSTR2 D295(7.36)A, n=3
  EC50: 495.7 ± 1.76 nM
[1]
  EC50: 198 ± 6.66 nM
  Emax: 60.24±1.11 %WT
β-arrestin recruitment, SSTR2 F208(5.38)A, detected at 10 μM, n=3
  Emax: 70.89±2.39 %WT
β-arrestin recruitment, SSTR2 F265(6.44)A, detected at 10 μM, n=3 octreotide, 4 paltusotine
  Emax: 49.61±1.04 %WT
[2]
  EC50: 990.7 ± 5.93 nM
  Emax: 114.80±11.09 %WT
β-arrestin recruitment, SSTR2 I130(3.40)A, detected at 10 μM, n=3
  Emax: 30.45±0.36 %WT
[3]
  EC50: 181 ± 3.33 nM
  Emax: 192.70±19.45 %WT
[4]
  EC50: 86.7 ± 3.5 nM
  Emax: 133.50±14.76 %WT
β-arrestin recruitment, SSTR2 L99(2.60)A, detected at 10 μM, n=3
  Emax: 84.26±3.71 %WT
[5]
  EC50: 69.1 ± 4.07 nM
  Emax: 157.20±15.71 %WT
β-arrestin recruitment, SSTR2 P220(5.50)A, detected at 10 μM, n=4
  Emax: 50.55±2.81 %WT
β-arrestin recruitment, SSTR2 Q102(2.63)A, detected at 10 μM, n=3
  Emax: 26.07±1.00 %WT
β-arrestin recruitment, SSTR2 Q126(3.36)A, detected at 10 μM, n=3
  Emax: 65.37±3.31 %WT
β-arrestin recruitment, SSTR2 T194(45.51)A, n=3
  Emax: 95.9±9.02 %WT
[6]
  EC50: 1077 ± 6.28 nM
  Emax: 50.80±24.99 %WT
[7]
  EC50: 68.7 ± 2.87 nM
  Emax: 90.74±11.02 %WT
[8]
  EC50: 172 ± 2.07 nM
  Emax: 152.00±23.85 %WT
[9]
  EC50: 225 ± 6.67 nM
  Emax: 190.00±17.00 %WT
